{"source": "paper PMC11234460", "about": "“In Silico Discovery of Stapled Peptide Inhibitor Targeting the Nur77‐PPARγ Interaction and Its Anti‐Breast‐Cancer Efficacy” (Advanced Science, 2024)", "key": {"[1]": {"system": "MDA-MB-231-GFP tumor tissue", "experiment": "Transcriptome analysis of xenograft tumor tissue", "type": "in vivo, mouse", "conditions": "10 mg group", "protocol": "To establish the bone metastasis tumor model, 1×10^5 cells were injected into the left ventricle of each mouse (7–8 weeks old), and surgery was monitored using a cardiac ultrasound instrument. The mice were randomly divided into three groups and treated with PBS (control group, n = 6), 5 mg kg^−1 ST‐CY14 (n = 6), and 10 mg kg^−1 ST‐CY14 (n = 6) Tumor cell metastasis was monitored using an in vivo imaging instrument (IVIS Spectrum, PerkinElmer, USA). by intraperitoneal injection of 20 mg kg^−1 D‐luciferin. The mice were treated with ST‐CY14 via intravenous injection using a 100 µL PBS solution every 2 days starting on the designated day after tumor cell injection. Bone tissue with MDA‐BoM‐1833 cell metastasis was obtained and stained for TRAP. The mice sera were collected and analyzed for BSP and β‐CTx levels using ELISA (Lengton, BPE10823, BPE10438). For the orthotopic xenograft tumor model, 3×10^6 cells were injected into the fourth pair of breast pads on the left side of the mouse (4–5 weeks old). The mice were treated with ST‐CY14 every two days once the tumor volume reached 30–50 mm^3, with the same groups as in the bone metastasis tumor model. The tumors were collected and stained for H&E, Ki‐67, and TUNEL assays, which were conducted by Wuhan Servicebio Technology Co., Ltd. Major organs (heart, liver, spleen, lung, and kidney) were also collected for H&E analysis by Wuhan Servicebio Technology Co., Ltd. The Transcriptome and LC/MS targeted lipid metabolome were sequenced by OE Biotech, Inc., Shanghai, China. To evaluate the efficacy of Csn‐B in inhibiting breast cancer bone metastasis, an animal model was established as described above. The mice were randomly divided into three groups and treated with PBS (control group, n = 6), 10 mg kg^−1 ST‐CY14 (n = 6) in 100 µL PBS solution, and 5 mg kg^−1 ST‐CY14 (n = 6) in a 100 µL mixed solution (5% DMSO, 20% PEG 400, 5% Tween 80, and 70% normal saline) via intravenous injection every 2 days starting on the designated day after tumor cell injection."}, "α-chymotrypsin [2]": {"molecular_target": "α-chymotrypsin (Bos taurus, UniProt P00766)", "experiment": "Protease stability in α-chymotrypsin solution", "type": "in vitro ADME", "conditions": "α-chymotrypsin, PBS pH 7.4, room temperature", "protocol": "(§1) The peptides were dissolved in PBS (pH 7.4) to a final concentration of 1 × 10^−3 M. α‐Chymotrypsin was dissolved in PBS (5 × 10^−2 M, containing 2 × 10^−3 M CaCl2, pH 7.4) to a final concentration of 0.5 ng µL^−1. Subsequently, 100 µL peptides were incubated with α‐chymotrypsin (1 mL) at room temperature, and 100 µL of the digestion mixture was collected at different times (5/10/20/30/60/120/240/480 min) and added to a centrifuge tube containing 20 µL of 1 M HCl to quench the enzymatic reaction. The solution of α‐Chymotrypsin peptide fragments was monitored by analytical HPLC to determine the fraction of protease degradation at 214 nm."}, "α-chymotrypsin [3]": {"system": "α-chymotrypsin", "experiment": "Protease stability in α-chymotrypsin solution", "type": "in vitro ADME", "conditions": "α-chymotrypsin solution; α-chymotrypsin 0.5 ng µL^−1 in PBS (5 × 10^−2 M, 2 × 10^−3 M CaCl2, pH 7.4); 100 µL of 1 × 10^−3 M peptide + 1 mL enzyme; room temperature; 5-480 min; quenched with 1 M HCl; analytical HPLC at 214 nm", "protocol": "as §1"}}, "note": "Where a SMILES comes first, the peptide text is derived from it. Bridges are numbered along the chain shown (N, C = ends). [ ]: non-standard residue; d: D form. S5 = C=CCCC[C@](C)(N)C(=O)O", "data": [{"compound": "C[C@@H](O)[C@@H]1NC(=O)[C@H](CCCNC(=N)N)NC(=O)[C@H](CCCNC(=N)N)NC(=O)[C@@](C)(NC(=O)[C@H](Cc2ccccc2)NC(=O)CNC(=O)[C@H](CCCCN)NC(=O)[C@H](CS)NC(=O)CNC(=O)[C@H](CCC(=O)O)NC(=O)[C@@H](N)CS)CCCC=CCCC[C@@](C)(C(=O)N[C@@H](CCCNC(=N)N)C(=O)N[C@@H](Cc2ccc(O)cc2)C(=O)N[C@@H](Cc2ccc(O)cc2)C(=O)NCC(=O)N[C@@H](CCCNC(=N)N)C(=O)N[C@@H](CCCCN)C(=O)N[C@@H](CCCCN)C(=O)N[C@@H](CCCNC(=N)N)C(=O)N[C@@H](CCCNC(=N)N)C(=O)N[C@@H](CCC(N)=O)C(=O)N[C@@H](CCCNC(=N)N)C(=O)N[C@@H](CCCNC(=N)N)C(=O)N[C@@H](CCCNC(=N)N)C(N)=O)NC1=O", "note": "[ST-CY14] (H-CEGCKGF[S5]RRT[S5]RYYGRKKRRQRRR-NH2; staple 8-12)", "values": [{"measurement": "AGT expression in tumor tissue (transcriptome)", "setting": "[1]; sample 1", "result": 0.07902}, {"measurement": "ANGPTL4 expression in tumor tissue (transcriptome)", "setting": "[1]; sample 1", "result": 3.636}, {"measurement": "CD36 expression in tumor tissue (transcriptome)", "setting": "[1]; sample 1", "result": 0}, {"measurement": "CD74 expression in tumor tissue (transcriptome)", "setting": "[1]; sample 1", "result": 0.3461}, {"measurement": "CNR1 expression in tumor tissue (transcriptome)", "setting": "[1]; sample 1", "result": 0.02158}, {"measurement": "CYP3A5 expression in tumor tissue (transcriptome)", "setting": "[1]; sample 1", "result": 0.3686}, {"measurement": "FABP4 expression in tumor tissue (transcriptome)", "setting": "[1]; sample 1", "result": 0.03159}, {"measurement": "INSL5 expression in tumor tissue (transcriptome)", "setting": "[1]; sample 1", "result": 0}, {"measurement": "ITGAL expression in tumor tissue (transcriptome)", "setting": "[1]; sample 1", "result": 0.005294}, {"measurement": "OAS1 expression in tumor tissue (transcriptome)", "setting": "[1]; sample 1", "result": 0.1526}, {"measurement": "OLAH expression in tumor tissue (transcriptome)", "setting": "[1]; sample 1", "result": 0.7465}, {"measurement": "PLIN1 expression in tumor tissue (transcriptome)", "setting": "[1]; sample 1", "result": 0.1271}, {"measurement": "POLR2J3 expression in tumor tissue (transcriptome)", "setting": "[1]; sample 1", "result": 0.1542}, {"measurement": "PTPRC expression in tumor tissue (transcriptome)", "setting": "[1]; sample 1", "result": 0.09088}, {"measurement": "PYY expression in tumor tissue (transcriptome)", "setting": "[1]; sample 1", "result": 0.3061}, {"measurement": "RNF152 expression in tumor tissue (transcriptome)", "setting": "[1]; sample 1", "result": 0.2243}, {"measurement": "SLX1B expression in tumor tissue (transcriptome)", "setting": "[1]; sample 1", "result": 0.4199}, {"measurement": "UTS2B expression in tumor tissue (transcriptome)", "setting": "[1]; sample 1", "result": 0.2634}, {"measurement": "VAMP7 expression in tumor tissue (transcriptome)", "setting": "[1]; sample 1", "result": 0.394}, {"measurement": "ZNF404 expression in tumor tissue (transcriptome)", "setting": "[1]; sample 1", "result": 0.5136}, {"measurement": "ZNF429 expression in tumor tissue (transcriptome)", "setting": "[1]; sample 1", "result": 0.01399}, {"measurement": "AGT expression in tumor tissue (transcriptome)", "setting": "[1]; sample 2", "result": 0.282}, {"measurement": "ANGPTL4 expression in tumor tissue (transcriptome)", "setting": "[1]; sample 2", "result": 6.216}, {"measurement": "CD36 expression in tumor tissue (transcriptome)", "setting": "[1]; sample 2", "result": 0.00582}, {"measurement": "CD74 expression in tumor tissue (transcriptome)", "setting": "[1]; sample 2", "result": 0.2008}, {"measurement": "CNR1 expression in tumor tissue (transcriptome)", "setting": "[1]; sample 2", "result": 0.02567}, {"measurement": "CYP3A5 expression in tumor tissue (transcriptome)", "setting": "[1]; sample 2", "result": 0.2054}, {"measurement": "FABP4 expression in tumor tissue (transcriptome)", "setting": "[1]; sample 2", "result": 0}, {"measurement": "INSL5 expression in tumor tissue (transcriptome)", "setting": "[1]; sample 2", "result": 1.442}, {"measurement": "ITGAL expression in tumor tissue (transcriptome)", "setting": "[1]; sample 2", "result": 0}, {"measurement": "OAS1 expression in tumor tissue (transcriptome)", "setting": "[1]; sample 2", "result": 0.4448}, {"measurement": "OLAH expression in tumor tissue (transcriptome)", "setting": "[1]; sample 2", "result": 0.9577}, {"measurement": "PLIN1 expression in tumor tissue (transcriptome)", "setting": "[1]; sample 2", "result": 0.01163}, {"measurement": "POLR2J3 expression in tumor tissue (transcriptome)", "setting": "[1]; sample 2", "result": 0.3872}, {"measurement": "PTPRC expression in tumor tissue (transcriptome)", "setting": "[1]; sample 2", "result": 0.01081}, {"measurement": "PYY expression in tumor tissue (transcriptome)", "setting": "[1]; sample 2", "result": 1.722}, {"measurement": "RNF152 expression in tumor tissue (transcriptome)", "setting": "[1]; sample 2", "result": 0.1875}, {"measurement": "SLX1B expression in tumor tissue (transcriptome)", "setting": "[1]; sample 2", "result": 0.5583}, {"measurement": "UTS2B expression in tumor tissue (transcriptome)", "setting": "[1]; sample 2", "result": 0.2673}, {"measurement": "VAMP7 expression in tumor tissue (transcriptome)", "setting": "[1]; sample 2", "result": 0.4688}, {"measurement": "ZNF404 expression in tumor tissue (transcriptome)", "setting": "[1]; sample 2", "result": 0.685}, {"measurement": "ZNF429 expression in tumor tissue (transcriptome)", "setting": "[1]; sample 2", "result": 0.06657}, {"measurement": "AGT expression in tumor tissue (transcriptome)", "setting": "[1]; sample 3", "result": 0.02516}, {"measurement": "ANGPTL4 expression in tumor tissue (transcriptome)", "setting": "[1]; sample 3", "result": 3.683}, {"measurement": "CD36 expression in tumor tissue (transcriptome)", "setting": "[1]; sample 3", "result": 0.004672}, {"measurement": "CD74 expression in tumor tissue (transcriptome)", "setting": "[1]; sample 3", "result": 0.1451}, {"measurement": "CNR1 expression in tumor tissue (transcriptome)", "setting": "[1]; sample 3", "result": 0.07831}, {"measurement": "CYP3A5 expression in tumor tissue (transcriptome)", "setting": "[1]; sample 3", "result": 0.312}, {"measurement": "FABP4 expression in tumor tissue (transcriptome)", "setting": "[1]; sample 3", "result": 0.06034}, {"measurement": "INSL5 expression in tumor tissue (transcriptome)", "setting": "[1]; sample 3", "result": 0.1867}, {"measurement": "ITGAL expression in tumor tissue (transcriptome)", "setting": "[1]; sample 3", "result": 0}, {"measurement": "OAS1 expression in tumor tissue (transcriptome)", "setting": "[1]; sample 3", "result": 0.2478}, {"measurement": "OLAH expression in tumor tissue (transcriptome)", "setting": "[1]; sample 3", "result": 1.048}, {"measurement": "PLIN1 expression in tumor tissue (transcriptome)", "setting": "[1]; sample 3", "result": 0}, {"measurement": "POLR2J3 expression in tumor tissue (transcriptome)", "setting": "[1]; sample 3", "result": 0.1963}, {"measurement": "PTPRC expression in tumor tissue (transcriptome)", "setting": "[1]; sample 3", "result": 0.04774}, {"measurement": "PYY expression in tumor tissue (transcriptome)", "setting": "[1]; sample 3", "result": 0.5582}, {"measurement": "RNF152 expression in tumor tissue (transcriptome)", "setting": "[1]; sample 3", "result": 0.2258}, {"measurement": "SLX1B expression in tumor tissue (transcriptome)", "setting": "[1]; sample 3", "result": 0.5662}, {"measurement": "UTS2B expression in tumor tissue (transcriptome)", "setting": "[1]; sample 3", "result": 0.1702}, {"measurement": "VAMP7 expression in tumor tissue (transcriptome)", "setting": "[1]; sample 3", "result": 0.3548}, {"measurement": "ZNF404 expression in tumor tissue (transcriptome)", "setting": "[1]; sample 3", "result": 0.3567}, {"measurement": "ZNF429 expression in tumor tissue (transcriptome)", "setting": "[1]; sample 3", "result": 0.0501}, {"measurement": "Improvement of proteolytic half-life versus T-CY14", "setting": "α-chymotrypsin [2]", "result": "seventeen‐fold improvement"}, {"measurement": "half-life at 90.9 µM", "setting": "α-chymotrypsin [3]", "result": 1.46, "unit": "h"}]}]}
